According to ChEMBL document CHEMBL4130445, “TNF-α and IL-6 inhibitors: Conjugates of N-substituted indole and aminophenylmorpholin-3-one as anti-inflammatory agents” (Eur J Med Chem, 2017):
Calls of active or inactive are those of the source. The rule behind the calls is not given here.

Experiments:
[1] = test system: BV-2; assay: Inhibition of LPS-induced TNFalpha production in mouse BV2 cells at 60 uM pre-incubated before LPS stimulation by ELISA; type: functional
[2] = test system: BV-2; assay: Cytotoxicity in mouse BV2 cells assessed as reduction in cell viability incubated for 48 hrs by MTT assay; type: cell-based; conditions: BV-2, 48 h
[3] = test system: BV-2; assay: Suppression of LPS-induced morphological changes in mouse BV2 cells at 5 uM pre-incubated before LPS stimulation by phase contrast microscopy; type: functional, cell-based
[4] = test system: BV-2; assay: Suppression of LPS-induced morphological changes in mouse BV2 cells at 10 uM pre-incubated before LPS stimulation by phase contrast microscopy; type: functional, cell-based
[5] = target: T1, Prostaglandin G/H synthase 2 (Homo sapiens) (UniProt P35354); assay: Inhibition of COX2 (unknown origin) by immunoassay
T1 sequence (whole entry): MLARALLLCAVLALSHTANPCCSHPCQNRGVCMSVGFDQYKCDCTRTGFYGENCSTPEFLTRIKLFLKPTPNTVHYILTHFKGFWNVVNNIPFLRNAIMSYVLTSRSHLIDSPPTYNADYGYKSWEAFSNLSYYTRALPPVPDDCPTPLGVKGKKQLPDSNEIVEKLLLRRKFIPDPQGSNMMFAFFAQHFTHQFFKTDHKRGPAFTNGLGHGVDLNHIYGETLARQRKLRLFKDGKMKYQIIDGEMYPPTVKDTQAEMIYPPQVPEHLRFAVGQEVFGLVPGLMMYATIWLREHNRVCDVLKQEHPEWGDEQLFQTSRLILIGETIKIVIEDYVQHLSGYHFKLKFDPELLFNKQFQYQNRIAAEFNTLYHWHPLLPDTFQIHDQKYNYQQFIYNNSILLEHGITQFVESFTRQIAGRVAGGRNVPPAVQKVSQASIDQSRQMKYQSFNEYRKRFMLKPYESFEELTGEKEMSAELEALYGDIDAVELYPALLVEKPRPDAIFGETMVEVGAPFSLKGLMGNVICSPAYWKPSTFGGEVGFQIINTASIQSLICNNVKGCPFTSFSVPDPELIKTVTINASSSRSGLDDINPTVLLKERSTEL

[6] = Cytotoxicity in mouse BV2 cells assessed as cell viability at 0.5 uM incubated for 48 hrs by MTT assay (reference value: 100%); type: cell-based, BV-2; conditions: read-out: Activity
[7] = Cytotoxicity in mouse BV2 cells assessed as cell viability at 1 uM incubated for 48 hrs by MTT assay (reference value: 100%); type: cell-based, BV-2; conditions: read-out: Activity
[8] = Cytotoxicity in mouse BV2 cells assessed as cell viability at 5 uM incubated for 48 hrs by MTT assay (reference value: 100%); type: cell-based, BV-2; conditions: read-out: Activity
[9] = Cytotoxicity in mouse BV2 cells assessed as cell viability at 10 uM incubated for 48 hrs by MTT assay (reference value: 100%); type: cell-based, BV-2; conditions: read-out: Activity
[10] = Cytotoxicity in mouse BV2 cells assessed as cell viability at 15 uM incubated for 48 hrs by MTT assay (reference value: 100%); type: cell-based, BV-2; conditions: read-out: Activity
[11] = Cytotoxicity in mouse BV2 cells assessed as cell viability at 20 uM incubated for 48 hrs by MTT assay (reference value: 100%); type: cell-based, BV-2; conditions: read-out: Activity
[12] = Cytotoxicity in mouse BV2 cells assessed as cell viability at 40 uM incubated for 48 hrs by MTT assay (reference value: 100%); type: cell-based, BV-2; conditions: read-out: Activity
[13] = Cytotoxicity in mouse BV2 cells assessed as cell viability at 60 uM incubated for 48 hrs by MTT assay (reference value: 100%); type: cell-based, BV-2; conditions: read-out: Activity
[14] = Cytotoxicity in mouse BV2 cells assessed as cell viability at 80 uM incubated for 48 hrs by MTT assay (reference value: 100%); type: cell-based, BV-2; conditions: read-out: Activity
[15] = Cytotoxicity in mouse BV2 cells assessed as cell viability at 100 uM incubated for 48 hrs by MTT assay (reference value: 100%); type: cell-based, BV-2; conditions: read-out: Activity
[16] = test system: BV-2; assay: Inhibition of LPS-induced nitric oxide production in mouse BV2 cells assessed as nitric oxide level at 10 uM pre-incubated before LPS stimulation by Griess reagent based assay (reference value: 121.09%); type: functional; set-up: scale not given: the % may be the effect or the level left
[17] = test system: BV-2; assay: Inhibition of LPS-induced nitric oxide production in mouse BV2 cells assessed as nitric oxide level at 20 uM pre-incubated before LPS stimulation by Griess reagent based assay (reference value: 121.09%); type: functional; set-up: scale not given: the % may be the effect or the level left
[18] = test system: BV-2; assay: Inhibition of LPS-induced TNFalpha production in mouse BV2 cells assessed as TNFalpha level at 10 uM pre-incubated before LPS stimulation by ELISA (reference value: 142.71%); type: functional; set-up: scale not given: the % may be the effect or the level left
[19] = test system: BV-2; assay: Inhibition of LPS-induced TNFalpha production in mouse BV2 cells assessed as TNFalpha level at 20 uM pre-incubated before LPS stimulation by ELISA (reference value: 142.71%); type: functional; set-up: scale not given: the % may be the effect or the level left
[20] = test system: BV-2; assay: Inhibition of LPS-induced IL6 production in mouse BV2 cells assessed as IL6 level at 10 uM pre-incubated before LPS stimulation by ELISA (reference value: 146.75%); type: functional; set-up: scale not given: the % may be the effect or the level left
[21] = test system: BV-2; assay: Inhibition of LPS-induced IL6 production in mouse BV2 cells assessed as IL6 level at 20 uM pre-incubated before LPS stimulation by ELISA (reference value: 146.75%); type: functional; set-up: scale not given: the % may be the effect or the level left
[22] = test system: BV-2; assay: Inhibition of LPS-induced TNFalpha production in mouse BV2 cells at 10 uM pre-incubated before LPS stimulation by ELISA; type: functional
[23] = test system: BV-2; assay: Inhibition of LPS-induced TNFalpha production in mouse BV2 cells at 20 uM pre-incubated before LPS stimulation by ELISA; type: functional
[24] = test system: BV-2; assay: Inhibition of LPS-induced IL6 production in mouse BV2 cells at 10 uM pre-incubated before LPS stimulation by ELISA; type: functional
[25] = test system: BV-2; assay: Inhibition of LPS-induced IL6 production in mouse BV2 cells at 20 uM pre-incubated before LPS stimulation by ELISA; type: functional
[26] = test system: Mus musculus; assay: Analgesic activity in Swiss albino mouse model of acetic acid induced writhing assessed as inhibition of pain response at 10 mg/kg, ip dosed 30 mins before acetic acid injection; type: functional
[27] = test system: BV-2; assay: Suppression of LPS-induced morphological changes in mouse BV2 cells at 1 to 20 uM pre-incubated before LPS stimulation by phase contrast microscopy; type: functional, cell-based
[28] = organism: Mus musculus; assay: Inhibition of LPS-induced NFkappaB nuclear translocation in mouse BV2 cells pre-incubated before LPS stimulation by immunostaining based confocal laser microscopy; type: cell-based
[29] = target: Transcription factor Jun (Mus musculus) (UniProt P05627); assay: Inhibition of LPS-induced AP1 nuclear translocation in mouse BV2 cells pre-incubated before LPS stimulation by immunostaining based confocal laser microscopy; type: cell-based
[30] = test system: BV-2; assay: Inhibition of LPS-induced MMP9 production production in mouse BV2 cells pre-incubated before LPS stimulation by gelatin zymography; type: functional, cell-based
[31] = test system: BV-2; assay: Inhibition of LPS-induced MMP2 production production in mouse BV2 cells pre-incubated before LPS stimulation by gelatin zymography; type: functional, cell-based
[32] = test system: BV-2; assay: Inhibition of LPS-induced MMP9 production production in mouse BV2 cells assessed as MMP9 protein level pre-incubated before LPS stimulation by gelatin zymography (reference value: 105.113%); type: functional; set-up: scale not given: the % may be the effect or the level left
[33] = test system: BV-2; assay: Inhibition of LPS-induced MMP2 production production in mouse BV2 cells assessed as MMP2 protein level pre-incubated before LPS stimulation by gelatin zymography (reference value: 105.071%); type: functional; set-up: scale not given: the % may be the effect or the level left
[34] = test system: BV-2; assay: Inhibition of LPS-induced TNFalpha production in mouse BV2 cells at 100 uM pre-incubated before LPS stimulation by ELISA; type: functional

Sequence of Transcription factor Jun (Mus musculus) (P05627 whole entry): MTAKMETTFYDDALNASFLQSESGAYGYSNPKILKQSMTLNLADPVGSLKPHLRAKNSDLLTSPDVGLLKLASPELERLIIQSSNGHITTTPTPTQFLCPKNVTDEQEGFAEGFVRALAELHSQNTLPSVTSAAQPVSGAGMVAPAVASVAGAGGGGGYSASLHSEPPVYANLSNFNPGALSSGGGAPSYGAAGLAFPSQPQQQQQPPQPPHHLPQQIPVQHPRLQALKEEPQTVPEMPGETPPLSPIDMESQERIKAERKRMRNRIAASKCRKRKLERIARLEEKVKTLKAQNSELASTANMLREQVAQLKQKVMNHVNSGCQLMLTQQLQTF

Row | SMILES | IC50 [2] | Activity [3] | Activity [4] | inhibition [5] | viability at 48 h, 0.5 µM [6] | viability at 48 h, 1 µM [7] | viability at 48 h, 5 µM [8] | viability at 48 h, 10 µM [9] | viability at 48 h, 15 µM [10] | viability at 48 h, 20 µM [11] | viability at 48 h, 40 µM [12] | viability at 48 h, 60 µM [13] | viability at 48 h, 80 µM [14] | viability at 48 h, 100 µM [15] | Activity [16] | Activity [17] | Activity [18] | Activity [19] | Activity [20] | Activity [21] | further results
1 | NC(=O)N1C(=O)/C(=C(\O)c2cccs2)c2cc(Cl)ccc21 [TENIDAP] | – | – | – | – | – | – | – | – | – | – | – | – | – | – | – | – | – | – | – | – | inhibition at 60 µM [1]: 67%
2 | O=C1COCCN1c1ccc(/N=C\c2cn(Cc3ccccc3)c3ccccc23)cc1 | > 100 µM | Active | Active | inactive | 86.6% | 89.3% | 84% | 91.3% | 95.7% | 87.8% | 69.5% | 65% | 58.7% | 56.2% | 129.638% | 103.8462% | 217.4584% | 183.8555% | 265.8219% | 181.9833% | –
3 | O=C1COCCN1c1ccc(/N=C\c2cn(C(=O)c3ccccc3)c3ccccc23)cc1 | > 100 µM | Active | Active | inactive | 104% | 109% | 87.3% | 88.6% | 86.6% | 85.1% | 72.6% | 57.5% | 58.4% | 52.9% | 97.74% | 98.08% | 199.2439% | 122.9276% | 258.2615% | 185.4729% | –
4 | O=C1COCCN1c1ccc(/N=C/c2cn(CCCn3cc(/C=N/c4ccc(N5CCOCC5=O)cc4)c4ccccc43)c3ccccc23)cc1 | > 100 µM | Active | Active | inactive | 99.9% | 97.1% | 94.1% | 91.3% | 93.1% | 95.3% | 79.8% | 72.4% | 67.6% | 61.4% | 107.9186% | 102.1493% | 90.26% | 80.53% | 126.5089% | 111.7925% | inhibition at 10 µM [22]: 36.8%; inhibition at 20 µM [23]: 43.6%; inhibition at 10 µM [24]: 13.8%; inhibition at 20 µM [25]: 23.8%; inhibition in vivo at 10 mg/kg [26]: 65.5%
5 | O=C1COCCN1c1ccc(/N=C\c2cn(Cc3ccc(F)cc3)c3ccccc23)cc1 | > 100 µM | – | inactive | inactive | 102% | 87.8% | 69.3% | 90% | 86.1% | 84.2% | 77.7% | 67.4% | 59% | 55.5% | – | – | – | – | – | – | Activity [27]: inactive
6 | O=C1COCCN1c1ccc(/N=C\c2c[nH]c3ccccc23)cc1 | > 100 µM | Active | Active | inactive | 104% | 105% | 101% | 98.5% | 100% | 104% | 105% | 90.8% | 97.8% | 101% | 104.5249% | 104.8643% | 66.71% | 56.03% | 91.1848% | 89.05% | inhibition at 10 µM [22]: 53.3%; inhibition at 20 µM [23]: 60.8%; inhibition at 10 µM [24]: 37.9%; inhibition at 20 µM [25]: 39.3%; inhibition [28]: Active; inhibition [29]: Active; inhibition [30]: Active; inhibition [31]: Active; Activity [32]: 96.273%; Activity [33]: 94.929%
7 | COc1ccc2c(c1)c(CC(=O)O)c(C)n2C(=O)c1ccc(Cl)cc1 [INDOMETHACIN] | – | – | – | – | – | – | – | – | – | – | – | – | – | – | – | – | – | – | – | – | inhibition at 100 µM [34]: 50%
8 | Cc1ccc(S(=O)(=O)n2cc(/C=N\c3ccc(N4CCOCC4=O)cc3)c3ccccc32)cc1 | > 100 µM | Active | Active | inactive | 90.9% | 92.1% | 89.1% | 86.4% | 71% | 56.7% | 58.1% | 56% | 57.8% | 57.4% | 108.5973% | 108.2579% | 90.58% | 70.48% | 101.2128% | 94.84% | inhibition at 10 µM [22]: 36.5%; inhibition at 20 µM [23]: 50.6%; inhibition at 10 µM [24]: 31%; inhibition at 20 µM [25]: 35.4%; inhibition [28]: Active; inhibition [29]: Active; Activity [32]: 95.906%; Activity [33]: 96.245%
